Usually inhibition stands for how much of the control response was suppressed. The term IC50 denotes the concentration that gives 50% inhibition.

Data set [1] concerns the target T1, HIV protease (Human immunodeficiency virus type 1 group M subtype B, UniProt P04585).
T1 construct: HIV protease consists of two identical subunits, each of which has 99 amino acid residues
As to the kind of experiment: Fluorogenic Assay for Screening Inhibitors of HIV Protease. As to conditions: read-out: Percent Inhibition. Type of data set: biochemical. The method, then: The inhibitory potency of the compound of the invention can be determined by the following method.
The compound of the invention is dissolved in DMSO and a small aliquot further diluted with DMSO to 100 times the final concentration desired for testing. The reaction is carried out in a 6 X 50 mm tube in a total volume of 300 microliters. The final concentrations of the components in the reaction buffer are: 125 mM sodium acetate, 1 M sodium chloride, 5 mM dithiothreitol, 0.5 mg/ml bovine serum albumin, 1.3 µM fluorogenic substrate, 2% (v/v) dimethylsulfoxide, pH 4.5. After addition of inhibitor, the reaction mixture is placed in the fluorometer cell holder and incubated at 30°C for several minutes. The reaction is initiated by the addition of a small aliquot of cold HIV protease. The fluorescence intensity (excitation 340 nm, emmision 490 nM) is recorded as a function of time. The reaction rate is determined for the first six to eight minutes. The observed rate is directly proportional to the moles of substrate cleaved per unit time. The percent inhibition is 100 X (1 - (rate in presence of inhibitor)/(rate in absence of inhibitor)).
Fluorogenic substrate: Dabcyl-Gaba-Ser-Gln-Asn-Tyr-Pro-lle-Val-Gln-EDANS wherein DABCYL = 4-(4-dimethylamino-phenyl)azobenzoic acid, Gaba = γ-aminobutyric acid, and EDANS = 5-((2-aminoethyl)amino)-naphthalene-1-sulfonic acid.

Data set [2] can be described thus: 50% lethal concentration in uninfected MT4 cells (MTT). As to conditions: human, read-out: LC50. Type of data set: cell-based. From the text:
(§1) The anti-HIV activity of the compound of the invention can be determined in MT4 cells according to the following procedure. MT4 cells were infected with cell-free supernatant of HIVIIIB (previously frozen with known 50% tissue culture infectious dose (TCID50) at 0.003 multiplicity of infection (MOI) for one hour. After one hour infection, cells were washed twice to remove residual viruses, resuspended in culture media and seeded into 96-well tissue culture plates at 1x10^4 cells per well with various half-log dilutions of compounds. Uninfected cells are included as toxicity and cell controls. RPMI 1640 media (Gibco ) with 10% fetal bovine serum were used as culture media. Various concentrations of human serum (Sigma) 50%, 25% and 12.5% were added to culture media resulting in final concentration of 60%, 35% and 22.5% total serum. All assay plates were incubated in 37 deg. cent. incubator for 5 days. MTT (sigma, 5 mg/ml stock in PBS) was added to all wells at 25 ul per well, incubate for 4 hours. 20%SDS with 0.02 N HCl in water was added at 50 ul per well to lyse cellls. Plates incubated overnight for complete lyses were read on a microtitre plate reader at 570/650 nm wavelengths to determine cell optical density (O.D.). Raw data were analysed for percent inhibition by the following formula: (O.D. test well - O.D. virus control)/(O.D. cell control -O.D. virus control)x100 [formula] The 50% effective concentration (EC50) was calculated by the median effect equation (Chou, 1975,Proc. Int. Cong. Pharmacol. 6th p. 619) to determine the efficacy of compound. The 50% lethal concentration (LC50) was calculated using uninfected MT4 cells.
(§2) Under these conditions, the following data were obtained (n = 4 duplicate determinations: Table 2

The test system of data set [3] is HIVIIIB. As to the kind of experiment: Antiviral activity (anti-HIV activity) in MT4 cells, MTT readout. It counts as cell-based. The following applies: Human immunodeficiency virus 1, MT4, 120 h, read-out: IC50 (µM, 0% plasma).
Description: as §1, §2

Where [4] appears, read: Inhibitor Concentration 0.5 nanomolar.

Like-named read-outs stand apart in the source and are kept apart here.

With `Cc1cccc(C)c1OCC(=O)N[C@@H](Cc1ccccc1)[C@@H](O)C[C@H](Cc1ccccc1)NC(=O)[C@H](C(C)C)N1CCNC1=O` [Example 1P, (2S, 3S, 5S)-2-(2,6-dimethylphenoxyacetyl) amino-3-hydroxy-5-[2S-(1-imidazolidin-2-onyl)-3-methyl-butanoyl] amino-1,6-diphenylhexane], the inhibition at 0.0005 µM in data set [1] is 92.6%. The CC50 at 120 h in data set [2] worked out at 41.3 µM. In addition, in data set [3], the IC50 is 0.01 µM.

Take `Cc1cccc(C)c1OCC(=O)N[C@@H](Cc1ccccc1)[C@@H](O)C[C@H](Cc1ccccc1)NC(=O)[C@H](C(C)C)N1CCOC1=O` [Example 3C, (2S, 3S, 5S)-2-(2,6-Dimethylphenoxyacetyl) amino-3-hydroxy-5-[2S-(3-oxazolidin-2-onyl)-3-methyl-butanoyl] amino-1,6-diphenylhexane]: the inhibition at 0.0005 µM in data set [1] (setting [4]) is 86.9%. The CC50 at 120 h in data set [2] came to 49.5 µM. Also, the IC50 in data set [3] stood at 0.025 µM.

Consider `CC(C)[C@@H](C(=O)N[C@@H](Cc1ccccc1)C[C@H](O)[C@H](Cc1ccccc1)NC(=O)O[C@H]1CO[C@H]2OCC[C@H]21)N1CCN(C)C1=O` [Example 4F, (2S,3S,5S)-2-[(3R, 3aS, 6aR)-Bis-tetrahydrofuranyloxy] amino-3-hydroxy-5-[2S-(3-methyl-1-imidazolidin-2-onyl)-3-methylbutanoyl] amino-1,6-diphenylhexane], for which the inhibition at 0.0005 µM in data set [1] (setting [4]) is 49.7%. Further, the CC50 at 120 h in data set [2] was > 100 µM. Moreover, the IC50 in data set [3] worked out at 0.101 µM.

On to `CC(C)[C@@H](C(=O)N[C@@H](Cc1ccccc1)C[C@H](O)[C@H](Cc1ccccc1)NC(=O)O[C@H]1CO[C@H]2OCC[C@H]21)N1CCNC1=O` [Example 5, (2S,3S,5S)-2-[(3R,3aS,6aR)-Bis-tetrahydrofuranyloxy] amino-3-hydroxy-5-[2S-(1-imidazolidin-2-onyl)-3-methylbutanoyl] amino-1,6-diphenylhexane], for which the inhibition at 0.0005 µM in data set [1] (setting [4]) was found to be 80.8%. Besides, the CC50 at 120 h in data set [2] was > 100 µM. Also, in data set [3], the IC50 amounted to 0.368 µM.

Take `CC(C)[C@@H](C(=O)N[C@@H](Cc1ccccc1)C[C@H](O)[C@H](Cc1ccccc1)NC(=O)OCc1cncs1)N1CCNC1=O` [Example 6F, (2S,3S,5S)-2-(N-((5-Thiazolyl)methoxycarbonyl)amino)-5-((2S-(1-imidazolidin-2-onyl)-3-methyl-butanoyl)-amino)-3-hydroxy-1,6-diphenylhexane]: in data set [1] (setting [4]), the inhibition at 0.0005 µM came to 61.4%. The CC50 at 120 h in data set [2] is > 100 µM. The IC50 in data set [3] amounted to 0.193 µM.

For the molecule `CC(C)(C)[C@@H](C(=O)N[C@@H](Cc1ccccc1)C[C@H](O)[C@H](Cc1ccccc1)NC(=O)OCc1cncs1)N1CCNC1=O` [Example 7B, (2S,3S,5S)-2-(N-((5-Thiazolyl)-methoxycarbonyl)amino)-3-hydroxy-5-(2S-(1-imidazolidin-2-onyl)-3,3-dimethylbutanoyl)amino-1,6-diphenylhexane], the inhibition at 0.0005 µM in data set [1] (setting [4]) was determined as 67.1%. In data set [2], the CC50 at 120 h was > 100 µM. Further, in data set [3], the half-inhibitory concentration (IC50) was 0.204 µM.

For `Cc1cccc(C)c1OCC(=O)N[C@@H](Cc1ccccc1)[C@@H](O)C[C@H](Cc1ccccc1)NC(=O)[C@@H](N1CCNC1=O)C(C)(C)C` [Example 8], in data set [1] (setting [4]), the inhibition at 0.0005 µM is 55.6%. Also, the CC50 at 120 h in data set [2] was 17.8 µM. Further, in data set [3], the IC50 amounted to 0.019 µM.

As to `Cc1cccc(C)c1OCC(=O)N[C@@H](Cc1ccccc1)[C@@H](O)C[C@H](Cc1ccccc1)NC(=O)[C@H](C(C)C)N1CCNC1=S` [Example 9B, (2S,3S,5S)-2-(2,6-Dimethylphenoxyacetyl)amino-3-hydroxy-5-(2S-(1-imidazolidin-2-thionyl)-3-methylbutanoyl)amino-1,6-diphenylhexane], in data set [1] (setting [4]), the inhibition at 0.0005 µM was 62.6%. Besides, in data set [2], the CC50 at 120 h was found to be 19.3 µM. The IC50 in data set [3] worked out at 0.272 µM.

As for `Cc1cc(N)cc(C)c1OCC(=O)N[C@@H](Cc1ccccc1)[C@@H](O)C[C@H](Cc1ccccc1)NC(=O)[C@H](C(C)C)N1CCNC1=O` [Example 10F, (2S,3S,5S)-2-(4-Amino-2,6-dimethylphenoxyacetyl) amino-3-hydroxy-5-(2S-(1-imidazolidin-2-onyl)-3-methyl-butanoyl) amino-1,6-diphenylhexane], the inhibition at 0.0005 µM in data set [1] (setting [4]) turned out to be 81%. Further, the CC50 at 120 h in data set [2] was 92 µM. For the same molecule, the IC50 in data set [3] turned out to be 0.047 µM.

For the molecule `Cc1cc(C)c(OCC(=O)N[C@@H](Cc2ccccc2)[C@@H](O)C[C@H](Cc2ccccc2)NC(=O)[C@H](C(C)C)N2CCNC2=O)c(C)c1` [Example 11B, (2S,3S,5S)-2-(2,4,6-Trimethylphenoxyacetyl) amino-3-hydroxy-5-(2S-(1-imidazolidin-2-onyl)-3-methylbutanoyl) amino-1,6-diphenylhexane], the inhibition at 0.0005 µM in data set [1] (setting [4]) is 91.1%. In addition, the CC50 at 120 h in data set [2] was 18.2 µM. The IC50 in data set [3] was determined as 0.19 µM.

As for `Cc1cc(F)cc(C)c1OCC(=O)N[C@@H](Cc1ccccc1)[C@@H](O)C[C@H](Cc1ccccc1)NC(=O)[C@H](C(C)C)N1CCNC1=O` [Example 12B, (2S,3S,5S)-2-(4-Fluoro-2,6-dimethylphenoxyacetyl) amino-3-hydroxy-5-(2S-(1-imidazolidin-2-onyl)-3-methyl-butanoyl) amino-1,6-diphenylhexane], the inhibition at 0.0005 µM in data set [1] (setting [4]) was 76.8%. Besides, the CC50 at 120 h in data set [2] was 19.1 µM. In data set [3], the IC50 amounted to 0.093 µM.

Regarding `Cc1ncnc(C)c1OCC(=O)N[C@@H](Cc1ccccc1)[C@@H](O)C[C@H](Cc1ccccc1)NC(=O)[C@H](C(C)C)N1CCNC1=O` [Example 13B, (2S,3S,5S)-2-(4,6-Dimethylpyrimidin-5-oxy-acetyl) amino-3-hydroxy-5-(2S-(1-imidazolidin-2-onyl)-3-methyl-butanoyl) amino-1,6-diphenylhexane], the inhibition at 0.001 µM in data set [1] (Inhibitor Concentration 1.0 nanomolar) came out at 56.2%.

As for `Cc1ccnc(C)c1OCC(=O)N[C@@H](Cc1ccccc1)[C@@H](O)C[C@H](Cc1ccccc1)NC(=O)[C@@H](N1CCNC1=O)C(C)(C)C` [Example 14D, (2S,3S,5S)-2-(2,4-Dimethyl-pyridin-3-oxy-acetyl) amino-3-hydroxy-5-(2S-(1-imidazolidin-2-onyl)-3,3-dimethylbutanoyl) amino-1,6-diphenylhexane], the inhibition at 0.0005 µM in data set [1] (setting [4]) worked out at 52.7%. For the same molecule, the CC50 at 120 h in data set [2] was > 100 µM. Also, the IC50 in data set [3] was 0.053 µM.

For the molecule `Cc1cccc(C)c1CCC(=O)N[C@@H](Cc1ccccc1)[C@@H](O)C[C@H](Cc1ccccc1)NC(=O)[C@H](C(C)C)N1CCCNC1=O` [Example 20D, (2S,3S,5S)-2-(3-(2,6-Dimethylphenyl)propanoyl) amino-3-hydroxy-5-(2S-(1-tetrahydropyrimidin-2-onyl)-3-methyl-butanoyl) amino-1,6-diphenylhexane], the CC50 at 120 h in data set [2] is 24.1 µM. Moreover, the IC50 in data set [3] worked out at 0.283 µM.

Regarding `CC(C)[C@@H](C(=O)N[C@@H](Cc1ccccc1)C[C@H](O)[C@H](Cc1ccccc1)NC(=O)O[C@@H]1CCS(=O)(=O)[C@@H]1C(C)C)N1CCCNC1=O` [Example 22E, (2S,3S,5S)-2-(cis(±)-1,1-dioxo-2-isopropyl-3-tetrahydrothiophenoxy)amino-3-hydroxy-5-(2S-(1-tetrahydropyrimid-2-onyl)-3-methylbutanoyl)amino-1,6-diphenylhexane], in data set [1] (setting [4]), the inhibition at 0.0005 µM was determined as 71.8%.

In the case of `Cc1cccc(C)c1OCC(=O)N[C@@H](Cc1ccccc1)[C@@H](O)C[C@H](Cc1ccccc1)NC(=O)[C@H](C(C)C)n1ccc(=O)[nH]c1=O` [Example 23C, (2S,3S,5S)-2-(2,6-Dimethylphenoxyacetyl) amino-3-hydroxy-5-(2S-(1-dihydropyrimid-2,4-dionyl)-3-methyl-butanoyl) amino-1,6-diphenylhexane], the inhibition at 0.0005 µM in data set [1] (setting [4]) was 86%.

The record behind these values is patent EP1295874A2, “Retroviral protease inhibiting compounds” (Abbott Laboratories, priority 1995, dated 1997).
